Measured values as given in article PMC6138628, “Enhanced uptake of gH625 by blood brain barrier compared to liver in vivo: characterization of the mechanism by an in vitro model and implications for delivery” (Scientific Reports, 2018).
Residues, ends and D or L forms follow the SMILES beside them.

Assays:
[1] = system: human neuroblastoma and glioblastoma astrocytoma; parameters: method as in PMID 25792823; conditions: human neuroblastoma and glioblastoma astrocytoma cells; cited from earlier work
[2] = parameters: method as in PMID 25792823; conditions: after 3.5 h of incubation in serum; cited from earlier work
ANTS/DPX leakage assay = conditions: 0.1 mM lipid, 5 mM Hepes, 100 mM NaCl, pH 7.4, 37 °C, data not shown
Experimental: The ANTS/DPX experiment was used to evaluate leakage of encapsulated dyes induced by the peptide. The peptide in 5 mM Hepes and 100 mM NaCl at pH 7.4 was added to the stirred vesicle suspension (0.1 mM lipid) containing ANTS and DPX at 37 °C. Details of this assay have been previously reported.

brain / BBB = assay: In vivo brain uptake, fluorescence microscopy of rat brain; parameters: species or system male Wistar rats; conditions: i.v., lower doses injected
Experimental: In vivo studies were performed in male Wistar rats housed under a 12 hours light-dark cycle with free access to food and water. The animals were allocated in five groups, each consisting of three rats. Three animal groups received a single i.v. administration of NBD-gH625 at a concentration of 10 µg, 20 µg, and 40 µg/100 g bw, respectively. Control group received vehicle while another group received gH-625 (40 µg/100 g bw). Both NBD-gH625 and gH625 were dissolved in phosphate-buffered saline. After 3.5 hours from the i.v. administration, the animals were anesthetized with Zoletil® (40 mg/100 g) and euthanized by decapitation. This study was carried out in strict accordance with recommendations in the European Guide for the Care and Use of Laboratory Animals. Every effort was made to minimize animal pain and suffering. All animal protocols were approved by the Committee on the Ethics of Animal Experiments of the University of Napoli Federico II (Italy) and the Italian Minister of Health. (Protocol number 2012/000180).
The ex-vivo fluorescence microscopy analysis was performed to evaluate the distribution of NBD-gH625 on both sides of the BBB. In order to evaluate if there is a linear relationship between slides fluorescence integrated density and the amount of the peptide, a calibration curve was obtained. In particular, increasing amounts of NBD-gH625 (0–30 µM) were spotted on microscope slides and images at 515 nm were acquired (See the Results section) and analysed as described below. Brains were removed from animals, sectioned sagittally in thick slices, washed in PBS, mounted on coverslips, stained with DAPI (4′–6 Diamidino-2-Phenylindole, Dilactate) (Invitrogen, Carlsbad, CA, USA) and analysed under Axioskop fluorescence microscope (Zeiss). Images, at least 10 field of view (800 × 700 μm each) for each experimental class, were acquired using an AxioCam MRc5 (Zeiss) with DAPI filter (λex 350 nm; λem 461 nm) and a fluorescein isothiocyanate filter (λex 488 nm; λem 515 nm).
To evaluate the distribution of NBD-gH625 on both sides of the BBB, we estimated the fluorescence inside the blood vessels (without discriminating between the amount present in the blood and that present in the endothelial cells) and outside the blood vessels in 10 images for each experimental class. In detail, to assess the NBD-gH625 that reached without crossing the BBB, we selected blood vessels as the region of interest (ROI) (inbound) and evaluated the fluorescence intensity; then, on the non-zero thresholded images, an inversion of selected ROI was carried out to obtain the complementary ROI to calculate the amounts of NBD-gH625 which crossed the BBB (outbound).
The morphology of blood vessels was easily identified and outlined; the images were calibrated by ImageJ Rodbard function; integrated density values were calculated within the outlines exclusively, to be considered as inside fluorescence. Then, the thresholded and outlined images, to exclude both blood vessels and background values, were used to calculate the integrated density as outside fluorescence.
To evaluate the effect of concentration on the systemic delivery of NBD-gH625, a fluorescence microscopy analysis was performed as previously reported.
Briefly, livers and brains were isolated and fixed for 24 hours in Bouin’s fixative (71% picric acid, 5% acetic acid, 24% formaldehyde) and embedded in paraffin wax (Carlo Erba, Milan, Italy). Tissue sections (10 μm of thickness) were incubated in 0.1% Sudan Black B dissolved in 70% ethanol for 20 minutes to reduce the tissues autofluorescence. The excess of Sudan Black B was removed by washing with Tris-buffered saline containing 0.02% Tween 20[30],[31]. Sections were stained with DAPI to counterstain nuclei, then mounted with a coverslip in glycerol/phosphate-buffered saline (1:1) and acquired using an AxioCam MRc5 with DAPI filter (λex 350 nm; λem 461 nm) and a fluorescein isothiocyanate filter (λex 488 nm; λem 515 nm). […]

[3] = Tryptophan quenching by acrylamide; format: physicochemical; conditions: peptide 4 µM, peptide/lipid 1/200, acrylamide up to 0.2 M, λex 295 nm, λem 340 nm
Experimental: A solution containing 4 µM of gH625 in the absence or presence of LUVs at a peptide/lipid molar ratio of 1/200, was titrated with the water-soluble quencher acrylamide (4 M mother solution). The maximal concentration of acrylamide in the samples is 0.2 M. Fluorescence was measured with λex 295 nm and λem 340 nm[43]. The data were analysed with the Stern-Volmer equation[43], F0/F = 1 + Ksv [Q], where F0 and F represent the fluorescence intensities in the absence and the presence of the quencher (Q), respectively. The Ksv is the Stern-Volmer quenching constant, and is correlated to the accessibility of the tryptophan residue to acrylamide. […] Ksv is thus determined by the amount of non-lipid-associated free peptide as well as the peptide fraction located on the surface of the bilayer.
The observed changes in the tryptophan emission upon binding to lipid vesicles indicate gH625 insertion into the hydrophobic region of the bilayers. We determined the accessibility of the tryptophan residues of membrane bound peptides towards acrylamide, a neutral, water-soluble quencher, which is unable to penetrate into the hydrophobic core of the lipid bilayer. In fact, tryptophan residues more deeply buried inside the membrane are less strongly quenched.

CC[C@H](C)[C@H](NC(=O)[C@H](CC(C)C)NC(=O)[C@H](C)NC(=O)[C@H](CC(N)=O)NC(=O)[C@H](Cc1ccc(O)cc1)NC(=O)[C@H](Cc1c[nH]cn1)NC(=O)[C@H](C)NC(=O)[C@H](Cc1c[nH]c2ccccc12)NC(=O)[C@H](CCCNC(=N)N)NC(=O)[C@@H](NC(=O)[C@H](CC(C)C)NC(=O)[C@@H](NC(=O)[C@H](CO)NC(=O)[C@H](C)NC(=O)[C@H](CC(C)C)NC(=O)CNC(=O)[C@@H](N)Cc1c[nH]cn1)[C@@H](C)O)[C@@H](C)O)C(=O)N[C@@H](CCCNC(=N)N)C(=O)N[C@@H](C)C(=O)N[C@@H](Cc1ccccc1)C(N)=O [gH625] (H-HGLASTLTRWAHYNALIRAF-NH2)
Percentage of uptake [1]: 80–90%
Serum stability, intact peptide [2]: significant amount of intact peptide
Leakage of encapsulated dyes (ANTS/DPX) (ANTS/DPX leakage assay; BBB mimicking LUVs): did not present any leakage
Leakage of encapsulated dyes (ANTS/DPX) (ANTS/DPX leakage assay; liver mimicking LUVs): did not present any leakage
Percentage of delivered peptide, brain compared to liver (brain / BBB): higher percentages of delivered peptide compared to the liver
Stern-Volmer quenching constant (Ksv) ([3]; BBB mimicking LUVs): 2.05 ± 0.08 M⁻¹
Stern-Volmer quenching constant (Ksv) ([3]; liver mimicking LUVs): 3.04 ± 0.06 M⁻¹
